Experimental data: PubChem BioAssay (NCI)
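Grown in 96-well plates, cells were treated for 48 hours with each compound at five concentrations. Insufficient inhibition: endpoint recorded as highest concentration tested. GI50: concentration for 50% inhibition of growth. TGI: total growth inhibition.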

What was measured:
Test in all cases: NCI anticancer screen, dose series, 48 h
SW-620 colon = tested on: SW-620 colon
NCI-H23 lung = tested on: NCI-H23 lung
SR leukemia = tested on: SR leukemia
UACC-62 melanoma = tested on: UACC-62 melanoma
A498 renal = tested on: A498 renal
KM12 colon = tested on: KM12 colon
HCT-116 colon = tested on: HCT-116 colon
CAKI-1 renal = tested on: CAKI-1 renal
OVCAR-5 ovarian = tested on: OVCAR-5 ovarian
UACC-257 melanoma = tested on: UACC-257 melanoma

| Structure (SMILES) | TGI (SW-620 colon) [µM] | TGI (NCI-H23 lung) [µM] | TGI (SR leukemia) [µM] | TGI (UACC-62 melanoma) [µM] | TGI (A498 renal) [µM] | TGI (KM12 colon) [µM] | TGI (HCT-116 colon) [µM] | TGI (CAKI-1 renal) [µM] | TGI (OVCAR-5 ovarian) [µM] | TGI (UACC-257 melanoma) [µM] | GI50 (NCI-H23 lung) [nM] | GI50 (SR leukemia) [nM] | GI50 (UACC-62 melanoma) [nM] | GI50 (KM12 colon) [nM] | GI50 (CAKI-1 renal) [nM] | GI50 (OVCAR-5 ovarian) [nM] | GI50 (UACC-257 melanoma) [nM] | GI50 (SW-620 colon) [nM] | GI50 (A498 renal) [µM] | GI50 (HCT-116 colon) [nM] |
| --- | --- | --- | --- | --- | --- | --- | --- | --- | --- | --- | --- | --- | --- | --- | --- | --- | --- | --- | --- | --- |
| Cc1ccc(S(=O)(=O)Nc2cc(=O)[nH]c3c2CCC3)cc1 | > 100 | > 100 | > 100 | > 100 | > 100 | > 100 | > 100 | > 100 | > 100 | > 100 |  |  |  |  |  |  |  |  |  |  |
| CCOC(=O)/C=C/C1=C(Br)[C@@]2(C)CC[C@@H]3c4ccc(O)cc4CC[C@H]3[C@@H]2C1 | 37.3 | 26.6 | 18.5 | 19.4 | 32 | 29.7 | 26.6 | 30 | 28.5 | 26.8 |  |  |  |  |  |  |  |  |  |  |
| CS(=O)(=O)Nc1cccc(-c2ccc3ncnc(Nc4cncc(Cl)c4)c3c2)c1 |  | 16.9 | 5.47 | 3.86 |  | > 100 |  | > 100 | > 100 | 4.82 | 2510 | 1670 | 1750 | 2920 | 2570 | 2050 | 2080 |  |  |  |
| C#C[C@]1(O)[C@@H](CO)O[C@@H](n2ccc(=O)[nH]c2=O)[C@@H]1O | > 100 | 7.37 | > 100 | 3.56 | > 100 | > 100 |  |  | > 100 | > 84.5 |  |  |  |  |  |  |  |  |  |  |
| CN(CCN1C(=O)c2cccc3cccc(c23)C1=O)CCN1C(=O)c2cccc3cccc(c23)C1=O |  | 43.7 | 13 | > 100 |  | > 100 | > 100 | > 100 | > 100 | > 100 |  |  |  |  |  |  |  |  |  |  |
| NC(N)=N/N=C/c1c(-c2cccs2)nc2n1CCS2 | 41.7 |  | 34 | 26.4 | > 100 | 29.2 |  |  |  | 44.8 |  | 17600 | 13500 | 14200 |  |  | 22300 | 17900 | 5.65 |  |
| Oc1ccc(Cl)cc1C1=Nn2c(COc3ccc4c(c3)CCCC4)nnc2SC1 | 33 | 26.9 |  | 25.4 | 11.8 | 29.8 | 19.4 | 49.6 | 34.6 | 35.6 |  |  |  |  |  |  |  |  |  |  |
| c1ccc(C[N+]23C(CC[C@H]2c2ccccc2)CC[C@H]3c2ccccc2)cc1 (stereo not given in full) | > 100 |  | > 100 |  | > 100 | 78 | > 100 | > 100 | > 100 | 90.3 |  |  |  |  |  |  |  |  |  |  |
| OC1CCSc2ccccc21 (stereo not given) | > 100 | > 100 | > 100 | > 100 |  | > 100 | > 100 | > 100 | > 100 |  |  |  |  |  |  |  |  |  |  |  |
| Nc1csc(-c2scc3c2OCCO3)c1N | 87.9 | 35.6 | > 100 | 45.1 | 36.6 | 56.5 | 46.4 | > 100 | 39.9 | 54.2 |  |  |  |  |  |  |  |  |  |  |
| Cc1cc(=O)[nH]c(S(=O)(=O)NC(=O)Nc2cccc(Cl)c2)n1 | > 100 | > 100 | > 100 | > 100 | > 100 | 32.3 | > 100 | > 22.3 | > 100 | > 100 |  |  |  |  |  |  |  |  |  |  |
| CC1(C)CC(C(=O)OCCCCCCCCCCC[P+](c2ccccc2)(c2ccccc2)c2ccccc2)C(C)(C)N1O (stereo not given) | 1.45 | 1.68 |  | 1.24 | 1.26 | 1.13 | 1.08 | 2.32 | 1.38 | 0.847 | 271 |  | 253 | 151 | 781 | 386 | 248 | 344 | 0.353 | 185 |
| CCOC(=O)c1cccc(N=Nc2ncc(/C=C/C(=O)OC)[nH]2)c1 | > 100 | > 100 | > 100 | 63.2 | 67.8 | 82.2 | 69.7 | > 100 | > 100 | 46.4 |  |  |  |  |  |  |  |  |  |  |
| CC(C)(C)COS(=O)OCC(C)(C)C | > 100 | > 100 | > 100 | > 100 | > 100 | > 100 | > 100 | > 100 | > 100 | > 100 |  |  |  |  |  |  |  |  |  |  |
| Fc1c(F)c(F)c(CSc2nc3ccccc3[nH]2)c(F)c1F | > 100 | > 100 | > 100 | > 100 | > 100 | > 100 | > 100 | > 100 | > 100 | > 100 |  |  |  |  |  |  |  |  |  |  |
| CC12OC(C(=O)C13CCC3)C1C(=O)c3c(O)ccc(O)c3C(=O)C12 (stereo not given) | 3.88 | 2.15 | 2.23 | > 36.6 | 29.8 | 10.5 | 1.78 | 2.62 | 4.29 | 7.81 | 577 | 290 | 3560 | 2910 | 817 | 2140 | 1530 | 1390 | 14.5 | 571 |
